# Literature values in patent publication US11596166B2 (priority 2017, dated 2023).
# Tested on: pellagra patients
# Details: in vivo
smiles,measurement,value
O=C(O)c1cccnc1 [nicotinic acid],acute mental symptoms,"disappear rapidly, often over night"
same,symptoms of pellagra,disappearance of many symptoms of the disease
same,time to blanching of acute erythematous dermal lesions with intact epithelium,≤ 48 h
same,"time to cessation of nausea and vomiting, normal bowel movements",24 to 72 h
same,"time to subsidence of redness and swelling of tongue, gums, mouth, throat, and vagina",24 to 72 h
